Source: US12729231B2, “Fusion protein having triple activity and use thereof” (SHANGHAI MINWEI BIOTECHNOLOGY CO., LTD, priority 2023, dated 2026)

Legend:
[1] = system: DIO mice; assay: body weight reduction by multiple subcutaneous injections in DIO mice; assay type: in vivo; conditions: 30 nmol/kg subcutaneous twice a week for 5 weeks, mean of 6 mice
Experimental: 7-week-old C57BL/6Nju mice were fed with a high-fat diet (of about 20% protein and about 60% fat) for 12 weeks for modeling. Feeding conditions: 12 hours of light and 12 hours of darkness cycle every day, ad libitum feeding, temperature 20-25° C., relative humidity 40-70%, ventilation frequency of 10-15 times/hour. According to body weight, water consumption, and food intake, the mice were randomly divided into groups the day before administration. […] Subcutaneous injection treatment was administered twice a week for 5 consecutive weeks, for a total of 10 administrations. After the administration, the body weight, OGTT, body fat ratio, blood lipids and liver function of the mice were measured. The data are shown as mean±standard deviation, and statistically analyzed by One-Way ANOVA.

[2] = cynomolgus macaques; cited from earlier work

Row | Molecule | ALT ([1]; DIO mice) | AST ([1]; DIO mice) | Blood glucose (fasting) ([1]; DIO mice) | LDL-C (plasma low-density lipoprotein cholesterol) ([1]; DIO mice) | TC (plasma total cholesterol) ([1]; DIO mice) | % Change in weight since inception ([1]; DIO obese mice) | half-life in vivo [2]
1 | Tirzepatide | 19.000 U/L | 54.683 U/L | 7.2 mmol/L | 0.423 mmol/L | 3.923 mmol/L | −22.55% | 
2 | natural FGF21: Fibroblast growth factor 21, wild type, SEQ ID NO 1 (protein, Wild type FGF21) HPIPDSSPLLQFGGQVRQRYLYTDDAQQTEAHLEIREDGTVGGAADQSPESLLQLKALKPGVIQILGVKTSRFLCQRPDGALYGSLHFDPEACSFRELLLEDGYNVYQSEAHGLPLHLPGNKSPHRDPAPRGPARFLPLPGLPPALPEPPGILAPQPPDVGSSDPLSMVGPSQGRSPSYAS |  |  |  |  |  |  | 2 to 3 h
3 | FGF21 L98R, P171G, A180E: FGF21 with the L98R, P171G, and A180E mutations, background literature variant (protein, UniProt Q9NSA1 29-209, looked up, variant L98R P171G A180E) Fibroblast growth factor 21: HPIPDSSPLLQFGGQVRQRYLYTDDAQQTEAHLEIREDGTVGGAADQSPESLLQLKALKPGVIQILGVKTSRFLCQRPDGALYGSLHFDPEACSFRERLLEDGYNVYQSEAHGLPLHLPGNKSPHRDPAPRGPARFLPLPGLPPALPEPPGILAPQPPDVGSSDPLSMVGGSQGRSPSYES |  |  |  |  |  |  | about 70 hours
